# Laboratory results from BindingDB's records for doi:10.1111/cbdd.12570 (University of Milano, 2015).
# Counter-ions that a name gives are not always drawn.
# Biological target: Putative heat shock protein HSP 90-alpha A4 (Homo sapiens, UniProt Q58FG1)
# Experiment: Fluorescence Polarization (FP) Assay
# Protocol: The fluorescence polarization (FP) assay was performed as described in the reference (Bioorg Med Chem. 2010. 18:6031-6043).
# Chain of Putative heat shock protein HSP 90-alpha A4 (Q58FG1 whole entry): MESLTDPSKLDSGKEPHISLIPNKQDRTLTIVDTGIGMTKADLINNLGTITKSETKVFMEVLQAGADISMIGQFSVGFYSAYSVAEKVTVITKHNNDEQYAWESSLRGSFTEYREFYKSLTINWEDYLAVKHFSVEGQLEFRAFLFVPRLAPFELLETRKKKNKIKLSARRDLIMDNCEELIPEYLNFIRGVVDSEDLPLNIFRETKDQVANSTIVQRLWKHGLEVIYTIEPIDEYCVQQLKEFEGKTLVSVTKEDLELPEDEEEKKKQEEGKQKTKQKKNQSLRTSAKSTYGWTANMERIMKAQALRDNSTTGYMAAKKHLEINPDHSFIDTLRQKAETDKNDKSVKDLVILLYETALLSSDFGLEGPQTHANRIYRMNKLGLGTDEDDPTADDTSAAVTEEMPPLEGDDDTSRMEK
row,Structure (SMILES),IC50
1,C=CCNC1=C2C[C@@H](C)C[C@H](OC)C[C@@H](C)/C=C/[C@H](OC(N)=O)[C@@H](OC)/C=C\C=C(/C)C(=O)NC(=CC1=O)C2=O [17-AAG],1.09 µM
2,"NC(=O)c1ccc(-c2noc3c2CCCC3=O)cc1 [4-(7-Oxo-4,5,6,7-tetrahydrobenzo[d]isoxazol-3-yl)-benzamide (20)]",> 100 µM
3,"NCCON=C1CCCc2c(-c3ccc(C(N)=O)cc3)noc21 [4-(7-(2-Aminoethoxyimino)-4,5,6,7-tetrahydrobenzo[d]isoxazol-3-yl)-benzamide hydrochloride (21c)]",> 100 µM
4,"O=C1NCCc2c(-c3cc(Cl)c(O)cc3O)noc21 [3-(5-chloro-2,4-dihydroxyphenyl)-5,6-dihydroisoxazolo[5,4-c]pyridin-7(4H)-one (9b)]",1.6 µM
5,"O=C1CCCc2c(-c3cc(Cl)c(O)cc3O)noc21 [3-(5-chloro-2,4-dihydroxyphenyl)-5,6-dihydrobenzo[d]isoxazol-7(4H)-one (13)]",4.8 µM

# Second part, the compound after the results:
row,IC50,Structure (SMILES)
1,10 µM,"CN1CCc2c(-c3cc(Cl)c(O)cc3O)noc2C1=O [3-(5-chloro-2,4-dihydroxyphenyl)-5,6-dihydro-6-methylisoxazolo[5,4-c]pyridin-7(4H)-one (9a)]"
2,> 100 µM,"NC(=O)c1ccc(-c2noc3c2CCCC3O)cc1 (configuration not stated) [4-(7-Hydroxy-4,5,6,7-tetrahydro-benzo[d]isoxazol-3-yl)benzamide (22)]"
3,> 100 µM,"NC(=O)c1ccc(-c2noc3c2CCCC3=NOCCN2CCOCC2)cc1 [4-(7-(2-Morpholin-4-yl-ethoxyimino)-4,5,6,7-tetrahydrobenzo[d]isoxazol-3-yl)benzamide (21b)]"
4,26 µM,"Oc1cc(O)c(-c2noc3c2CCCC3O)cc1Cl (configuration not stated) [3-(5-chloro-2,4-dihydroxyphenyl)-4,5,6,7-tetrahydro-benzo[d]isoxazol-7-ol (14)]"
5,> 100 µM,"NC(=O)c1ccc(-c2noc3c2CCCC3=NO)cc1 [4-(7-Hydroxyimino-4,5,6,7-tetrahydro-benzo[d]isoxazol-3-yl)benzamide (21a)]"
6,6.3 µM,"NCCON=C1CCCc2c(-c3cc(Cl)c(O)cc3O)noc21 [3-(5-chloro-2,4-dihydroxyphenyl)-5,6-dihydro-4H-benzo[d]isoxazol-7-one O-(2-aminoethyl)-oxime hydrochloride (16)]"
7,0.8 µM,"ON=C1CCCc2c(-c3cc(Cl)c(O)cc3O)noc21 [3-(5-chloro-2,4-dihydroxyphenyl)-5,6-dihydro-4H-benzo[d]isoxazol-7-one oxime (15)]"
